Experimental data taken from patent publication US4897426A, “Method for blocking calcium channels” (New York University, priority 1989, dated 1990).
Like-named read-outs stand apart in the source and are kept apart here.

Experiments:
[1] = test system: high-threshold calcium conductance (HTCC); conditions: 10^-4 M butanol; sodium channel blocked by tetrodotoxin
bovine platelets = conditions: cited from earlier work
[2] = test system: low-threshold calcium channels (LTCC); test: Intracellular recording of low-threshold calcium rebound spike in inferior olivary cells of brain slices (LTCC blockage); assay type: cell-based, guinea pig
[3] = test system: synaptosomes isolated from rat brains; conditions: ethanol 2.5×10^-2 -1.5×10^-1 M; cited from earlier work
[4] = test system: rat brain synaptic membrane vesicles; conditions: 10^-1 M; cited from earlier work
[5] = read-out: Blood level; one or two drinks of an alcohol-containing beverage; cited from earlier work
[6] = in vivo; cited from earlier work
tremor [7] = test: Harmaline-induced tremor, electromyogram of left platysma muscle; assay type: in vivo, Sprague-Dawley rats
Experimental: In order to analyze the effects of LTCC-blocking agents in vivo, octanol was administered to rats. Alcohols were diluted with physiological saline and sonicated to ensure mixing to create a concentration of alcohol around the neurons equivalent to 10^-6 M (at most). The alcohol was administered intraperitoneally at a concentration of to 10 mM. […] (Harmaline is available from Sigma Chemical Co., St. Louis, M.) The thus-induced tremor has a periodicity similar to physiological or enhanced physiological tremor.
Therefore, study of I.O. cells of mammals in which tremor has been induced with harmaline provides an excellent in vivo model for studying tremor response in mammals.
Tremor can be measured by electromyogram conducted according to Buchthal, F., et al., Acta Physio. Scand. 39: 83-104, 1957, incorporated by reference.
The electric activity in the left platysma muscle of 278 to 300 g Sprague-Dawley rats (from Taconic Farms, Germantown, N.Y.) was recorded differentially using two teflon-coated stranded silver wires (2 mm of wire exposed) placed in the belly of the muscle. The electromyogram (emg) was recorded throughout the experiment and the data were analyzed at the following times: (1) before administration of any drugs; (2) after intraperitoneal injection of 15 mg/kg harmaline; and (3) after subsequent intraperitoneal injection of 2 cc of 10 mM 1-octanol (99% octanol sonicated in physiological saline) given to create a concentration of 9.3 micrograms/g of rat body weight or 7×10^-5 M in the vicinity of the neuronal cells (if all the alcohol was to be absorbed, and none metabolized). The emg was smoothed and differentiated (to further decrease the background noise) using a Nicolet Explorer Model 4060 digital oscilloscope (from Nicolet Instrument Corp., Madison, Wis.). This instrument was also used to obtain autocorrelograms of 800-ms sections of the emg's. Autocorrelograms were obtained by superimposing 800-ms sections of the emg signals. The emerging patterns (if any) can be used to determine frequency and amplitude characteristics of the emg that may not be readily discernible from the naked emg signal.

tremor [8] = conditions: cited from earlier work
squid axons = conditions: octanol 10^-4 M; cited from earlier work
LTCC = test: Voltage clamp study of LTCC in I.O. neurons; assay type: cell-based, guinea pig; conditions: octanol 10^-6 M; depolarization steps of 5 mV from holding potential -80 mV
Description: Adult Hartley guinea pigs (400-600 g) from Camm Research Institute, Wayne, N.J. were decapitated, after ether anesthesia, using a small animal guillotine. Immediately thereafter, two longitudinal sections were made along the lateral edge of the squamous portion of the occipital bone. The resulting bone slab was cut transversely, and pulled caudalward to expose the cerebellum and brain stem. […] It was then transected longitudinally in a parasagittal plane and fixed to a Vibratome Model G plate (available from Ted Pella, Inc., Tustin, Calif.) in order to obtain thin longitudinal sections. From a single brain stem, six 300-micron slices could be obtained. Following sectioning, the slices were incubated in Ringer's solution for approximately one hour. The bathing medium was kept at room temperature and a mixture of 95% O2 and 5% CO2 was bubbled into the bath during this period. Brain stem slices were removed from the incubation bath after one hour but could be kept in good condition in the bath for periods of time up to 24 hours. […]
The results presented in this Example were recorded in I.O. neurons from different parts of the nucleus. […] In these experiments, the ionic current across the membrane was measured after a voltage clamp pulse was applied across the membrane. […]

[9] = Solubility in aqueous media; assay type: physicochemical; conditions: relative to most effective concentration for blocking LTCC
[10] = complete blockage of LTCC, for hexanol through decanol nominal, 10^-6 M at most (not fully soluble)
[11] = harmaline 15 mg/kg i.p., no alcohol
[12] = 2 cc of 10 mM 1-octanol i.p. after harmaline 15 mg/kg i.p.

Compound: CCCCO [butanol]
- Effect on the HTCC [1]: absence of any effect on the HTCC
- Inhibition of calcium mobilization (bovine platelets; 5×10^-2 M): inhibitors of calcium mobilization
- Inhibition of the LTCC or rebound spike [2]: inhibition of the LTCC or rebound spike
- Preferred highest molar concentration / operative range for substantial and total blockage of LTCC: To About [2]: ~10^-6

Compound: CCCCCCCCCCO [decanol]
- Preferred highest molar concentration / operative range for substantial and total blockage of LTCC: From About [2, 10]: ~10^-6 M

Compound: CCO [ethanol]
- Inhibition of voltage-dependent calcium uptake [3]: inhibited voltage-dependent calcium uptake
- Inhibition of calcium influxes [4]: inhibited calcium influxes
- concentration [5]: ~10000 µM
- Intoxicating and addictive properties [6]: well-known
- Preferred highest molar concentration / operative range for substantial and total blockage of LTCC: From About [2]: ~10^-3
- Preferred highest molar concentration / operative range for substantial and total blockage of LTCC: To About [2]: ~10^-4

Compound: COc1ccc2c3c([nH]c2c1)C(C)=NCC3 [harmaline, reference compound]
- Tremor induction (tremor [7]; harmaline 15 mg/kg i.p.): periods of generalized tremor
- Degree of autocorrelation of emg (tremor [7]; [11]): high degree of autocorrelation
- Dominant frequency of tremor (tremor [7]; [11]): 7.5 Hz
- Induction of tremor in mammals (known) (tremor [8]): known to induce tremor in mammals

Compound: CCCCCCCO [heptanol]
- Preferred highest molar concentration / operative range for substantial and total blockage of LTCC: From About [2, 10]: ~10^-6 M

Compound: CCCCCCO [hexanol]
- Inhibition of calcium mobilization (bovine platelets; 5×10^-3 (unit not given)): inhibitors of calcium mobilization
- Preferred highest molar concentration / operative range for substantial and total blockage of LTCC: From About [2, 10]: ~10^-6 M

Compound: CCCCCCCCCO [nonanol]
- Preferred highest molar concentration / operative range for substantial and total blockage of LTCC: From About [2, 10]: ~10^-6 M

Compound: CCCCCCCCO [octanol, 1-octanol]
- Baseline muscle activity (tremor [7]; [12]): reduced below control levels
- Dominant frequency of emg (tremor [7]; [12]): 10 Hz
- Tremor after harmaline and alcohol (tremor [7]; [12]): the tremor stopped
- Observed intracellular calcium concentration (squid axons): apparent increase in the observed intracellular calcium concentration
- Blockage of low-threshold calcium ionic current (LTCC): completely blocked the ionic conductance
- Solubility in aqueous media [9]: corresponds closely to the most effective concentration for blocking the LTCC
- Blockage of calcium-dependent rebound potentials (LTCC) ([2]; 10^-6 M octanol in bath, sodium spike blocked with 10^-6 M tetrodotoxin): complete blockage of the calcium-dependent rebound potentials
- Blockage of the rebound calcium spike following membrane hyperpolarization ([2]; 10^-6 M octanol, hyperpolarizing square current pulse, 10^-6 M tetrodotoxin): blocked
- Preferred highest molar concentration / operative range for substantial and total blockage of LTCC: From About [2, 10]: ~10^-6 M

Compound: CCCCCO [pentanol]
- Preferred highest molar concentration / operative range for substantial and total blockage of LTCC: From About [2, 10]: ~10^-6 M
